Consider nine molecules from ChEMBL document CHEMBL3352279, “Synthesis and Structure-Activity Relationship Study of 5a-Carbasugar Analogues of SL0101” (ACS Med Chem Lett, 2015).

Activity calls are given as the source filed them. The rule behind the calls is not given here.

Assay [1] has as its system MCF7. The experiment in a line: Effect on phosphorylation motif of tyrosine kinase in human MCF7 cells at 50 uM by immunoblotting analysis. It is filed as cell-based.
Assay [2] addresses Ribosomal protein S6 kinase alpha-3 (Homo sapiens, UniProt P51812). The experiment in a line: Inhibition of RSK2 (unknown origin) assessed as phosphorylation by Western lightning enhanced chemiluminescent reagent/HRP activity assay.
Assay [3] relates to MCF-10A. The assay can be described thus: Antiproliferative activity against human MCF10A cells at 50 uM after 48 hrs by CellTiterGlo assay. It is filed as functional, cell-based. (In general: Cellular ATP, detected with luciferase, serves as a proxy for viable cell number.)
Assay [4] has as its target Ribosomal protein S6 kinase alpha-1 (Homo sapiens) (UniProt Q15418). The assay can be described thus: Inhibition of RSK in PMA-stimulated human MCF7 cells assessed as increase in phosphorylation of eEF2 at 50 uM by immunoblotting analysis. It is filed as cell-based. In general terms: In western blotting, separated proteins are transferred to a membrane and probed.
The target is the same in assay [5]. The assay can be described thus: Inhibition of RSK in PMA-stimulated human MCF7 cells assessed as decrease in intensity of band at 65 and 27 kDa at 50 uM by immunoblotting analysis. Type of assay: cell-based.
Assay [6] relates to MCF7. The experiment in a line: Increase in phosphorylation motif of protein kinase A in human MCF7 cells at 50 uM by immunoblotting analysis. It is filed as cell-based.
Assay [7] concerns the target Protein kinase C (PKC) (Homo sapiens) (UniProt O94806+P41743+P17252+P05129+Q05655+P05771+Q05513+Q02156+P24723+Q15139+Q04759). The assay can be described thus: Effect on phosphorylation motif of protein kinase C in human MCF7 cells at 50 uM by immunoblotting analysis. Type of assay: cell-based.
The test system of assay [8] is MCF7. The experiment in a line: Reduction in cyclin D1 in PMA-stimulated human MCF7 cells at 50 uM by immunoblotting analysis. Type of assay: functional, cell-based.
For assay [9], the system named is MCF7. The experiment in a line: Antiproliferative activity against human MCF7 cells at 50 uM after 48 hrs by CellTiterGlo assay. It is filed as functional, cell-based.
The subject of assay [10] is MCF7. The experiment in a line: Increase in phosphorylation motif of protein kinase A in human MCF7 cells at 100 uM by immunoblotting analysis. Type of assay: cell-based.
For assay [11], the target named is Ribosomal protein S6 kinase alpha-1 (Homo sapiens) (UniProt Q15418). The experiment in a line: Inhibition of RSK in PMA-stimulated human MCF7 cells assessed as decrease in intensity of band at 65 and 27 kDa at 100 uM by immunoblotting analysis. Type of assay: cell-based.
For assay [12] the target is unchanged. The experiment in a line: Inhibition of RSK in PMA-stimulated human MCF7 cells assessed as increase in phosphorylation of eEF2 at 100 uM by immunoblotting analysis. Type of assay: cell-based.
Assay [13] has as its system MCF7. The experiment in a line: Antiproliferative activity against human MCF7 cells at 100 uM after 48 hrs by CellTiterGlo assay. Type of assay: functional.
Assay [14] relates to MCF7. The experiment in a line: Reduction in cyclin D1 in PMA-stimulated human MCF7 cells at 100 uM by immunoblotting analysis. It is filed as functional, cell-based.
Assay [15] deals with MCF-10A. The assay can be described thus: Antiproliferative activity against human MCF10A cells at 100 uM after 48 hrs by CellTiterGlo assay. Type of assay: functional, cell-based.
In assay [16] the test system is MCF-10A. The experiment in a line: Antiproliferative activity against human MCF10A cells at 25 uM after 48 hrs by CellTiterGlo assay. Type of assay: functional, cell-based.
The test system of assay [17] is MCF7. The experiment in a line: Antiproliferative activity against human MCF7 cells at 25 uM after 48 hrs by CellTiterGlo assay. Type of assay: functional. To be noted: MCF7, 48 h.

Ribosomal protein S6 kinase alpha-3, sequence (P51812 whole entry): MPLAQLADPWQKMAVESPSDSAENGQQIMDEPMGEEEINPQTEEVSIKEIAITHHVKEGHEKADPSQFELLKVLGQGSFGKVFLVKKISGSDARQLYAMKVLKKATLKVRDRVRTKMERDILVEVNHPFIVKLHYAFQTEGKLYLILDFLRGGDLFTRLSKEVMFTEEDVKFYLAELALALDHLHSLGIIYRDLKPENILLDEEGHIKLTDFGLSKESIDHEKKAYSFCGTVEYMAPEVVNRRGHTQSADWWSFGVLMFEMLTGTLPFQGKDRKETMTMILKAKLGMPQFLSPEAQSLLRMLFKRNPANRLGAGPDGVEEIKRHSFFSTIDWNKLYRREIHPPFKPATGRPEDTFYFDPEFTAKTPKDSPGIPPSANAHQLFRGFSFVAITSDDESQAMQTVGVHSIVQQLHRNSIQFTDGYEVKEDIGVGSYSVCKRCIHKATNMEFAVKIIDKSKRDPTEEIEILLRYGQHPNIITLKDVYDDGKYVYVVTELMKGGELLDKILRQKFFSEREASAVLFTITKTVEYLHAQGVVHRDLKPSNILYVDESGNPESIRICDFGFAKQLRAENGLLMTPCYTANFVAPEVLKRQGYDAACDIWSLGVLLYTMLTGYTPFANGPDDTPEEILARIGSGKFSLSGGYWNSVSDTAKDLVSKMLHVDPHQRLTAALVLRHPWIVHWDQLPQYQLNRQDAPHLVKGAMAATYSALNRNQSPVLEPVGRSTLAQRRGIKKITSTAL
Ribosomal protein S6 kinase alpha-1 (Homo sapiens), sequence (Q15418 whole entry): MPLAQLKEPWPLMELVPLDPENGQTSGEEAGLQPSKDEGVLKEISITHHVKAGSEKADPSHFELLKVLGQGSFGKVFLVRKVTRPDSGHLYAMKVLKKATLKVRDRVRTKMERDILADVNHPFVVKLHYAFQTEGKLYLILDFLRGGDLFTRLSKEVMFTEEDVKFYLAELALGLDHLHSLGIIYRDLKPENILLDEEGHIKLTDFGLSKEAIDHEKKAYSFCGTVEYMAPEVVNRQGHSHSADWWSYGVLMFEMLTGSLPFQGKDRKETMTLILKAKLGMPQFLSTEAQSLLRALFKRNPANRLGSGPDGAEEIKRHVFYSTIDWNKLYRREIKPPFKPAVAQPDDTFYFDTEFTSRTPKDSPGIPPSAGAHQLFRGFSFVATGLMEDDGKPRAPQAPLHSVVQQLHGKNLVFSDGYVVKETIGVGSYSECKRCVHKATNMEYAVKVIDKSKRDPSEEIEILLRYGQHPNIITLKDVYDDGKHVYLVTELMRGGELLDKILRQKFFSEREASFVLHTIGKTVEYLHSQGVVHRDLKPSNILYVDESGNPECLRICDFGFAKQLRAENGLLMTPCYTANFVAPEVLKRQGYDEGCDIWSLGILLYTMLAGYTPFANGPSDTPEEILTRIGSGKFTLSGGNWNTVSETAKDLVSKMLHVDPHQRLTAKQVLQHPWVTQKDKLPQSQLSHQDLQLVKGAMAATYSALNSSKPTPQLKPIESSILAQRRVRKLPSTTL

As usually defined, the IC50 is the concentration that inhibits the measured activity by half. A word on the inhibition: it is the share of the control response that was lost under treatment. On to `CC(=O)O[C@@H]1[C@@H](O)[C@@H](OC(C)=O)[C@H](Oc2c(-c3ccc(O)cc3)oc3cc(O)cc(O)c3c2=O)C[C@H]1C`, for which the result in assay [1], in assay [6], in assay [7] and in assay [8] was inactive. Moreover, the IC50 in assay [2] (read-out: IC50) was 1600 nM. For the same molecule, the inhibition result in assay [3] and in assay [9] was “Active” throughout. Besides, the result in assay [4] was Active. In [5], the inhibition entry was “inactive”.
As to `CC(=O)O[C@H]1[C@@H](O)[C@H](OC(C)=O)[C@@H](C)C[C@@H]1Oc1c(-c2ccc(O)cc2)oc2cc(O)cc(O)c2c1=O`, in assay [2], the half-maximal inhibitory concentration (IC50) result is given as “Not Active”.
For the molecule `CC(=O)O[C@@H]1[C@@H](OC(C)=O)[C@@H](O)[C@H](Oc2c(-c3ccc(O)cc3)oc3cc(O)cc(O)c3c2=O)O[C@H]1C`, the outcome in assay [10] and in [12] was Active. Further, the inhibition entry in assay [11] and in [14] was “Active” throughout. In assay [13] (MCF7, 48 h), this molecule registered an inhibition at 100 µM of 60%.
Regarding `CC(=O)O[C@@H]1[C@H](O)[C@@H](Oc2c(-c3ccc(O)cc3)oc3cc(O)cc(O)c3c2=O)C[C@H](C)[C@H]1OC(C)=O`, the IC50 entry in assay [2] is recorded as “Not Active”.
Consider `CC(=O)O[C@H]1[C@H](O)[C@H](O)[C@@H](Oc2c(-c3ccc(O)cc3)oc3cc(O)cc(O)c3c2=O)C[C@@H]1C`, for which the IC50 result in [2] is given as “Not Active”. In addition, the inhibition entry in [15] and in [13] was “inactive” in each case.
Take `CC(=O)O[C@@H]1[C@H](O)[C@@H](Oc2c(-c3ccc(O)cc3)oc3cc(O)cc(O)c3c2=O)CC[C@H]1OC(C)=O`: the IC50 result in assay [2] was “Not Active”.
For `CC(=O)O[C@@H]1[C@@H](OC(C)=O)[C@@H](O)[C@H](Oc2c(-c3ccc(O)cc3)oc3cc(O)cc(O)c3c2=O)C[C@H]1C`, the outcome in [1], in [6], in [7] and in [8] was inactive. For the same molecule, the IC50 in [2] (read-out: IC50) stood at 270 nM. In addition, the inhibition result in assay [3], in assay [16] and in assay [9] was “Active” in each case. For the same molecule, the inhibition at 25 µM in [17] worked out at 60%. Moreover, the result in [4] was Active. For the same molecule, the inhibition result in assay [5] is “inactive”.
`CC(=O)O[C@H]1[C@@H](O)[C@H](Oc2c(-c3ccc(O)cc3)oc3cc(O)cc(O)c3c2=O)CC[C@@H]1OC(C)=O`: the IC50 in assay [2] (read-out: IC50) was 8930 nM.
In the case of `CC(=O)O[C@@H]1[C@@H](O)[C@@H](O)[C@H](Oc2c(-c3ccc(O)cc3)oc3cc(O)cc(O)c3c2=O)C[C@H]1C`, the IC50 in assay [2] (read-out: IC50) worked out at 1230 nM. Besides, the inhibition entry in assay [15] and in assay [13] was “Active” throughout.
